Laboratory results reported in patent US12599613B2, “Composition comprising dutasteride” (Chong Kun Dang Pharmaceutical Corp., priority 2018, dated 2026).

Experiment: Dissolution rate of pharmaceutical composition in vitro (Korean Pharmacopoeia Method I, basket)
Type: physicochemical
Conditions: 56 mg dutasteride, 900 mL 1% w/v sodium dodecyl sulfate, 37° C., 100 rpm
Experimental: A dissolution rate of the inventive compositions in vitro was identified through the following experiment. Example 32 was filled into a disposable syringe in such an amount that corresponds to 56 mg of dutasteride and then injected into a dissolution medium, and Comparative Example 1 was directly put into a rotating basket in such an amount that corresponds to 56 mg of dutasteride. This experiment was performed according to the dissolution test method I in the 10th revision of the Korean Pharmacopocia and the conditions for dissolution are as follows.
<Conditions for Dissolution of Pharmaceutical Composition>
• Dissolution method: Method I of the Korean Pharmacopoeia (Appratus I—Basket) • Dissolution medium: 900 mL of solution containing 1% w/v sodium dodecyl sulfate • Dissolution temperature: 37±0.5° C. • Rotation speed: 100 rpm • Test hour: 1, 3, 6, 12 and 24 hours
With regard to a concentration of dutasteride in a dissolution sample, a dissolution rate for 24 hours was analyzed with HPLC under the condition of Experimental Example 1 and the results thereof were shown in FIG. 2.

C[C@]12C=CC(=O)N[C@@H]1CC[C@@H]1[C@@H]2CC[C@]2(C)[C@@H](C(=O)Nc3cc(C(F)(F)F)ccc3C(F)(F)F)CC[C@@H]12 [Comparative Example 1, dutasteride]
state of dutasteride in the dissolution medium (dissolved / precipitated): a part of the drug only was dissolved into the dissolution medium
dissolution rate with an elapse of time (24 hours): hardly increased with an elapse of time from one hour after
